Experiments:
Assay type in all cases: functional
Escherichia coli = assay: Antibacterial activity against Escherichia coli MTCC 443 at 50 mg/ml after 24 hrs by disk agar diffusion technique; conditions: MTCC 443, 24 h, read-out: DIZ
Candida albicans = assay: Antifungal activity against Candida albicans MTCC 227 at 50 mg/ml after 24 hrs by disk agar diffusion technique; conditions: MTCC 227, 24 h, read-out: DIZ
Staphylococcus aureus = assay: Antibacterial activity against Staphylococcus aureus MTCC 96 at 50 mg/ml after 24 hrs by disk agar diffusion technique; conditions: MTCC 96, 24 h, read-out: DIZ
Streptococcus pyogenes = assay: Antibacterial activity against Streptococcus pyogenes MTCC 442 at 50 mg/ml after 24 hrs by disk agar diffusion technique; conditions: MTCC 442, 24 h, read-out: DIZ
Pseudomonas aeruginosa = assay: Antibacterial activity against Pseudomonas aeruginosa MTCC 424 at 50 mg/ml after 24 hrs by disk agar diffusion technique; conditions: MTCC 424, 24 h, read-out: DIZ
Aspergillus clavatus = assay: Antifungal activity against Aspergillus clavatus MTCC 1323 at 50 mg/ml after 24 hrs by disk agar diffusion technique; conditions: MTCC 1323, 24 h, read-out: DIZ

Work on `CCOC(=O)Cn1c(=O)n(C2CCN(C3CCc4cc(OC)c(OC)cc43)CC2)c2ccc(Cl)cc21` (centres undefined) yielded a zone of inhibition at 50000 µg/mL (Escherichia coli) of 12 mm, a zone of inhibition at 50000 µg/mL (Candida albicans) of 15 mm and a zone of inhibition at 50000 µg/mL (Staphylococcus aureus) of 14 mm. The zone of inhibition at 50000 µg/mL (Streptococcus pyogenes) was 16 mm, the zone of inhibition at 50000 µg/mL (Pseudomonas aeruginosa) was 11 mm and the zone of inhibition at 50000 µg/mL (Aspergillus clavatus) was 14 mm.

`CCOC(=O)n1c(=O)n(C2CCN(C3CCc4cc(OC)c(OC)cc43)CC2)c2ccc(Cl)cc21` (centres undefined) was tested, and the zone of inhibition at 50000 µg/mL (Escherichia coli) was 15 mm, the zone of inhibition at 50000 µg/mL (Candida albicans) was 7 mm and the zone of inhibition at 50000 µg/mL (Staphylococcus aureus) was 11 mm. The zone of inhibition at 50000 µg/mL (Streptococcus pyogenes) was 14 mm, the zone of inhibition at 50000 µg/mL (Pseudomonas aeruginosa) was 13 mm and the zone of inhibition at 50000 µg/mL (Aspergillus clavatus) was 21 mm.

With `CCN(CC)C(=O)n1c(=O)n(C2CCN(C3CCc4cc(OC)c(OC)cc43)CC2)c2ccc(Cl)cc21` (centres undefined) the zone of inhibition at 50000 µg/mL (Escherichia coli) was 13 mm, the zone of inhibition at 50000 µg/mL (Candida albicans) was 10 mm and the zone of inhibition at 50000 µg/mL (Staphylococcus aureus) was 20 mm. The zone of inhibition at 50000 µg/mL (Streptococcus pyogenes) was 11 mm, the zone of inhibition at 50000 µg/mL (Pseudomonas aeruginosa) was 8 mm and the zone of inhibition at 50000 µg/mL (Aspergillus clavatus) was 11 mm.

With `COc1cc2c(cc1OC)C(N1CCC(n3c(=O)n(CCCl)c4cc(Cl)ccc43)CC1)CC2` (centres undefined) the zone of inhibition at 50000 µg/mL (Escherichia coli) was 10 mm, the zone of inhibition at 50000 µg/mL (Candida albicans) was 17 mm and the zone of inhibition at 50000 µg/mL (Staphylococcus aureus) was 18 mm. It also gave a zone of inhibition at 50000 µg/mL (Streptococcus pyogenes) of 16 mm, a zone of inhibition at 50000 µg/mL (Pseudomonas aeruginosa) of 11 mm and a zone of inhibition at 50000 µg/mL (Aspergillus clavatus) of 13 mm.

Compound `COc1cc2c(cc1OC)C(N1CCC(n3c(=O)n(CCCN(C)C)c4cc(Cl)ccc43)CC1)CC2` (centres undefined) has a zone of inhibition at 50000 µg/mL (Escherichia coli) of 14 mm, a zone of inhibition at 50000 µg/mL (Candida albicans) of 18 mm and a zone of inhibition at 50000 µg/mL (Staphylococcus aureus) of 13 mm. The zone of inhibition at 50000 µg/mL (Streptococcus pyogenes) was 18 mm, the zone of inhibition at 50000 µg/mL (Pseudomonas aeruginosa) was 16 mm and the zone of inhibition at 50000 µg/mL (Aspergillus clavatus) was 10 mm.

Work on `COCn1c(=O)n(C2CCN(C3CCc4cc(OC)c(OC)cc43)CC2)c2ccc(Cl)cc21` (centres undefined) yielded a zone of inhibition at 50000 µg/mL (Escherichia coli) of 14 mm, a zone of inhibition at 50000 µg/mL (Candida albicans) of 24 mm and a zone of inhibition at 50000 µg/mL (Staphylococcus aureus) of 10 mm. The zone of inhibition at 50000 µg/mL (Streptococcus pyogenes) was 13 mm, the zone of inhibition at 50000 µg/mL (Pseudomonas aeruginosa) was 15 mm and the zone of inhibition at 50000 µg/mL (Aspergillus clavatus) was 15 mm.

With `COc1cc2c(cc1OC)C(N1CCC(n3c(=O)n(Cc4ccccc4)c4cc(Cl)ccc43)CC1)CC2` (centres undefined) the zone of inhibition at 50000 µg/mL (Escherichia coli) was 11 mm, the zone of inhibition at 50000 µg/mL (Candida albicans) was 25 mm and the zone of inhibition at 50000 µg/mL (Staphylococcus aureus) was 11 mm. The zone of inhibition at 50000 µg/mL (Streptococcus pyogenes) was 10 mm, the zone of inhibition at 50000 µg/mL (Pseudomonas aeruginosa) was 13 mm and the zone of inhibition at 50000 µg/mL (Aspergillus clavatus) was 17 mm.

`COc1cc2c(cc1OC)C(N1CCC(n3c(=O)n(Cc4ccc(Cl)cc4)c4cc(Cl)ccc43)CC1)CC2` (centres undefined) gave a zone of inhibition at 50000 µg/mL (Escherichia coli) of 19 mm, a zone of inhibition at 50000 µg/mL (Candida albicans) of 16 mm and a zone of inhibition at 50000 µg/mL (Staphylococcus aureus) of 17 mm. For the same compound, the zone of inhibition at 50000 µg/mL (Streptococcus pyogenes) was 9 mm, the zone of inhibition at 50000 µg/mL (Pseudomonas aeruginosa) was 9 mm and the zone of inhibition at 50000 µg/mL (Aspergillus clavatus) was 19 mm.

For `COc1cc2c(cc1OC)C(N1CCC(n3c(=O)n(Cc4ccc([N+](=O)[O-])cc4)c4cc(Cl)ccc43)CC1)CC2` (centres undefined), the zone of inhibition at 50000 µg/mL (Escherichia coli) was 17 mm, the zone of inhibition at 50000 µg/mL (Candida albicans) was 17 mm and the zone of inhibition at 50000 µg/mL (Staphylococcus aureus) was 13 mm. The zone of inhibition at 50000 µg/mL (Streptococcus pyogenes) was 11 mm, the zone of inhibition at 50000 µg/mL (Pseudomonas aeruginosa) was 10 mm and the zone of inhibition at 50000 µg/mL (Aspergillus clavatus) was 22 mm.

In the case of `CC1(C)S[C@@H]2[C@H](NC(=O)[C@H](N)c3ccccc3)C(=O)N2[C@H]1C(=O)O` [AMPICILLIN], the zone of inhibition at 50000 µg/mL (Escherichia coli) is reported as 20 mm, the zone of inhibition at 50000 µg/mL (Staphylococcus aureus) is reported as 18 mm and the zone of inhibition at 50000 µg/mL (Streptococcus pyogenes) is reported as 19 mm. The zone of inhibition at 50000 µg/mL (Pseudomonas aeruginosa) was 20 mm.

With `O=C(N[C@H](CO)[C@H](O)c1ccc([N+](=O)[O-])cc1)C(Cl)Cl` [CHLORAMPHENICOL] the zone of inhibition at 50000 µg/mL (Escherichia coli) was 23 mm, the zone of inhibition at 50000 µg/mL (Staphylococcus aureus) was 21 mm and the zone of inhibition at 50000 µg/mL (Streptococcus pyogenes) was 20 mm. For the same compound, the zone of inhibition at 50000 µg/mL (Pseudomonas aeruginosa) was 21 mm.

`OC(Cn1cncn1)(Cn1cncn1)c1ccc(F)cc1F` [FLUCONAZOLE] gave a zone of inhibition at 50000 µg/mL (Candida albicans) of 24 mm and a zone of inhibition at 50000 µg/mL (Aspergillus clavatus) of 24 mm.
